Biological target: T1, BTK protein (Homo sapiens, UniProt Q06187)
T1 construct: endogenous in cells; host or cells: TMD-8 cells
Experiment: Measurement of BTK protein degradation ability in TMD-8 cells (Western blotting)
Format: cell-based
Details: harvested after 24 hours; for BTK degradation (%) 1 nM: compound 1 nM; for BTK degradation (%) 10 nM: compound 10 nM; for BTK degradation (%) 100 nM: compound 100 nM
Method in brief: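 BTK levels were measured by immunoblotting of equal-protein RIPA lysates, normalized to GAPDH or β-actin, with chemiluminescent or infrared detection. Lysates came from TMD-8 cells exposed to compound for 24 h at final concentrations of 0.1, 1, 10 μM or 0.0001–0.1 μM, against a DMSO control.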

T1 sequence (Q06187 whole entry): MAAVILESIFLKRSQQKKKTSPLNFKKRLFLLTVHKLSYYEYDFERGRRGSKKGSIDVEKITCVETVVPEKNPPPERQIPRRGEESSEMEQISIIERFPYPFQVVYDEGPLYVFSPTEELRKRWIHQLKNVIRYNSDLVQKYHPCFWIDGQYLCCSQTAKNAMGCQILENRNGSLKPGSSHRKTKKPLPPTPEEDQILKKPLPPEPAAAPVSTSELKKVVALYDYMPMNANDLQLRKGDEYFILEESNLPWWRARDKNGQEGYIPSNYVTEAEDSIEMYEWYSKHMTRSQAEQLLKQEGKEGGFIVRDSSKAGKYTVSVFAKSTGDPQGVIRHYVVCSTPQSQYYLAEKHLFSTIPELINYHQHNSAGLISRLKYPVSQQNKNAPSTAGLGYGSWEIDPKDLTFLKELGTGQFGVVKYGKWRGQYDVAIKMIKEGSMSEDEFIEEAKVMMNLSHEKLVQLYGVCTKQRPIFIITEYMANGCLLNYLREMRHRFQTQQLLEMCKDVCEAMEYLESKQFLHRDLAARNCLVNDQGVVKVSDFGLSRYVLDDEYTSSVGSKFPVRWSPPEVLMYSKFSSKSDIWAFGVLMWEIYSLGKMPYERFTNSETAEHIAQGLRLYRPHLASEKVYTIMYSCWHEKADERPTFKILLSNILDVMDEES

Structure (SMILES)	BTK degradation (%) 1 nM [%]	BTK degradation (%) 10 nM [%]	BTK degradation (%) 100 nM [%]
Cc1cc(-c2ccnc(Nc3ccc(C4CCN(CC5CCN(c6ccc7c(c6)C(=O)N(C6CCC(=O)NC6=O)C7=O)CC5)CC4)nc3)n2)ccc1CNC(=O)N1CC(OC(C)C)C1 (stereo not shown) [Example 19, N-(4-(2-((6-(1-((1-(2-(2,6-dioxopiperidin-3-yl)-1,3-dioxoisoindolin-5-yl)piperidin-4-yl)methyl)piperidin-4-yl)pyridin-3-yl)amino)pyrimidin-4-yl)-2-methylbenzyl)-3-isopropoxyazetidine-1-carboxamide]	48	93	99
Cc1cc(-c2ccnc(Nc3cnn(C4CCN(CC5CCN(c6ccc7c(c6)C(=O)N(C6CCC(=O)NC6=O)C7=O)CC5)CC4)c3)n2)ccc1CNC(=O)c1cnn(C(C)C)c1 (stereo not shown) [Example 35, N-(4-(2-((1-(1-((1-(2-(2,6-dioxopiperidin-3-yl)-1,3-dioxoisoindolin-5-yl)piperidin-4-yl)methyl)piperidin-4-yl)-1H-pyrazol-4-yl)amino)pyrimidin-4-yl)-2-methylbenzyl)-1-isopropyl-1H-pyrazole-4-carboxamide]	50.5	93.5	99.5
Cc1cc(-c2ccnc(Nc3ccc(C4CCN(CC5CN(c6ccc7c(c6)C(=O)N(C6CCC(=O)NC6=O)C7=O)C5)CC4)cc3)n2)ccc1CNC(=O)N1CC(OC(C)C)C1 (stereo not shown) [Example 16, N-(4-(2-((4-(1-((1-(2-(2,6-dioxopiperidin-3-yl)-1,3-dioxoisoindolin-5-yl)azetidin-3-yl)methyl)piperidin-4-yl)phenyl)amino)pyrimidin-4-yl)-2-methylbenzyl)-3-isopropoxyazetidine-1-carboxamide]	59	93	98.5
Cc1cc(-c2ccnc(Nc3ccc(N4CCN(CC5CN(c6ccc7c(c6)C(=O)N(C6CCC(=O)NC6=O)C7=O)C5)CC4)cc3)n2)ccc1CNC(=O)c1cn(C(C)(C)C)nn1 (stereo not shown) [Example 32, 1-(tert-butyl)-N-(4-(2-((4-(4-((1-(2-(2,6-dioxopiperidin-3-yl)-1,3-dioxoisoindolin-5-yl)azetidin-3-yl)methyl)piperazin-1-yl)phenyl)amino)pyrimidin-4-yl)-2-methylbenzyl)-1H-1,2,3-triazole-4-carboxamide]	58.5	92	98.5
Cc1cc(-c2ccnc(Nc3ccc(C4CN(CC5CCN(C(=O)c6cccc(NC7CCC(=O)NC7=O)c6)CC5)C4)cc3)n2)ccc1CNC(=O)N1CC(OC(C)C)C1 (stereo not shown) [Example 101, N-(4-(2-((4-(1-((1-(3-((2,6-dioxopiperidin-3-yl)amino)benzoyl)piperidin-4-yl)methyl)azetidin-3-yl)phenyl)amino)pyrimidin-4-yl)-2-methylbenzyl)-3-isopropoxyazetidine-1-carboxamide]	50.5	98.0	100.0
Cc1c(NC(=O)c2cnn(C(C)(C)C)c2)cc(F)cc1-c1ccnc(Nc2ccc3c(c2)CN(CC2CCN(c4ccc5c(c4)C(=O)N(C4CCC(=O)NC4=O)C5=O)CC2)CC3)n1 (stereo not shown) [Example 5, 1-(tert-butyl)-N-(3-(2-((2-((1-(2-(2,6-dioxopiperidin-3-yl)-1,3-dioxoisoindolin-5-yl)piperidin-4-yl)methyl)-1,2,3,4-tetrahydroisoquinolin-7-yl)amino)pyrimidin-4-yl)-5-fluoro-2-methylphenyl)-1H-pyrazole-4-carboxamide]		−12	−7
Cc1cc(-c2ccnc(Nc3ccc(N4CCN(CC5CCN(c6cccc(NC7CCC(=O)NC7=O)c6)CC5)CC4)cc3)n2)ccc1CNC(=O)N1CC(OC(C)C)C1 (stereo not shown) [Example 54, N-(4-(2-((4-(4-((1-(3-((2,6-dioxopiperidin-3-yl)amino)phenyl)piperidin-4-yl)methyl)piperazin-1-yl)phenyl)amino)pyrimidin-4-yl)-2-methylbenzyl)-3-isopropoxyazetidine-1-carboxamide]	38.7	95.0	99.7
Cc1cc(-c2ccnc(Nc3ccc(N4CCC(CN5CCC(c6ccc(NC7CCC(=O)NC7=O)cn6)CC5)CC4)cc3)n2)ccc1CNC(=O)N1CC(OC(C)C)C1 (stereo not shown) [Example 126, N-(4-(2-((4-(4-((4-(5-((2,6-dioxopiperidin-3-yl)amino)pyridin-2-yl)piperidin-1-yl)methyl)piperidin-1-yl)phenyl)amino)pyrimidin-4-yl)-2-methylbenzyl)-3-isopropoxyazetidine-1-carboxamide]	39.7	95.7	100.0
Cc1cc(-c2ccnc(Nc3ccc(N4CCN(CC5CCN(c6ccc7c(c6)C(=O)N(C6CCC(=O)NC6=O)C7=O)CC5)CC4)cc3)n2)ccc1COC(=O)N1CC(OC(C)C)C1 (stereo not shown) [Example 30, 4-(2-((4-(4-((1-(2-(2,6-dioxopiperidin-3-yl)-1,3-dioxoisoindolin-5-yl)piperidin-4-yl)methyl)piperazin-1-yl)phenyl)amino)pyrimidin-4-yl)-2-methylbenzyl 3-isopropoxyazetidine-1-carboxylate]	−1	20.5	91.5
Cc1cc(-c2ccnc(Nc3ccc(N4CCN(CC5CCN(c6ccc(NC7CCC(=O)NC7=O)cc6)CC5)CC4)cc3)n2)ccc1CNC(=O)N1CC(OC(C)C)C1 (stereo not shown) [Example 55, N-(4-(2-((4-(4-((1-(4-((2,6-dioxopiperidin-3-yl)amino)phenyl)piperidin-4-yl)methyl)piperazin-1-yl)phenyl)amino)pyrimidin-4-yl)-2-methylbenzyl)-3-isopropoxyazetidine-1-carboxamide]	37.7	94.7	99.7
Cc1cc(-c2ccnc(Nc3ccc(N4CCC(C(=O)N5CCC(c6ccc(NC7CCC(=O)NC7=O)cc6)CC5)CC4)cc3)n2)ccc1CNC(=O)N1CC(OC(C)C)C1 (stereo not shown) [Example 117, N-(4-(2-((4-(4-(4-(4-((2,6-dioxopiperidin-3-yl)amino)phenyl)piperidine-1-carbonyl)piperidin-1-yl)phenyl)amino)pyrimidin-4-yl)-2-methylbenzyl)-3-isopropoxyazetidine-1-carboxamide]	24.0	87.5	99.0

Continued, values first:

BTK degradation (%) 1 nM [%]	BTK degradation (%) 10 nM [%]	BTK degradation (%) 100 nM [%]	Structure (SMILES)
	89.5	97.5	Cc1cc(-c2ccnc(Nc3ccc(N4CCN(CC5CCN(c6ccc7c(c6)C(=O)N(C6CCC(=O)NC6=O)C7=O)CC5)CC4)cc3)n2)ccc1CNC(=O)c1cnn(C(C)(C)C)c1 (stereo not shown) [Example 8, 1-(tert-butyl)-N-(4-(2-((4-(4-((1-(2-(2,6-dioxopiperidin-3-yl)-1,3-dioxoisoindolin-5-yl)piperidin-4-yl)methyl)piperazin-1-yl)phenyl)amino)pyrimidin-4-yl)-2-methylbenzyl)-1H-pyrazole-4-carboxamide]
53.5	94.5	99.0	Cc1cc(-c2ccnc(Nc3ccc(N4CCN(CC5CCN(c6ccc(OC7CCC(=O)NC7=O)cc6)CC5)CC4)cc3)n2)ccc1CNC(=O)c1cnn(C(C)C)c1 (stereo not shown) [Example 48, N-(4-(2-((4-(4-((1-(4-((2,6-dioxopiperidin-3-yl)oxy)phenyl)piperidin-4-yl)methyl)piperazin-1-yl)phenyl)amino)pyrimidin-4-yl)-2-methylbenzyl)-1-isopropyl-1H-pyrazole-4-carboxamide]
43.0	91.5	97.0	Cc1cc(-c2ccnc(Nc3ccc(N4CCN(CC5CCN(c6ccc(N7CCC(=O)NC7=O)cc6F)CC5)CC4)cc3)n2)ccc1CNC(=O)c1cn(C(C)(C)C)nn1 [Example 73]
65.0	97.0	99.5	Cc1cc(-c2ccnc(Nc3ccc(N4CCN(CC5CCN(c6cccc(N7CCC(=O)NC7=O)c6)CC5)CC4)cc3)n2)ccc1CNC(=O)c1cnn(C(C)(C)C)c1 [Example 81, 1-(tert-butyl)-N-(4-(2-((4-(4-((1-(3-(2,4-dioxotetrahydropyrimidin-1 (2H)-yl)phenyl)piperidin-4-yl)methyl)piperazin-1-yl)phenyl)amino)pyrimidin-4-yl)-2-methylbenzyl)-1H-pyrazole-4-carboxamide]
14.0	87.0	98.0	Cc1cc(-c2ccnc(Nc3ccc(CN4CCN(CC5CCN(c6ccc(N7CCC(=O)NC7=O)cc6)CC5)CC4)cc3)n2)ccc1CNC(=O)c1cn(C(C)(C)C)nn1 [Example 75, 1-(tert-butyl)-N-(4-(2-((4-((4-((1-(4-(2,4-dioxotetrahydropyrimidin-1 (2H)-yl)phenyl)piperidin-4-yl)methyl)piperazin-1-yl)methyl)phenyl)amino)pyrimidin-4-yl)-2-methylbenzyl)-1H-1,2,3-triazole-4-carboxamide]
49.5	93.5	99.5	Cc1cc(-c2ccnc(Nc3ccc(N4CCN(CC5CCN(c6ccc7c(c6)C(=O)N(C6CCC(=O)NC6=O)C7=O)CC5)CC4)cc3)n2)ccc1CNC(=O)c1cnn(C(C)C)c1 (stereo not shown) [Example 33, N-(4-(2-((4-(4-((1-(2-(2,6-dioxopiperidin-3-yl)-1,3-dioxoisoindolin-5-yl)piperidin-4-yl)methyl)piperazin-1-yl)phenyl)amino)pyrimidin-4-yl)-2-methylbenzyl)-1-isopropyl-1H-pyrazole-4-carboxamide]
